According to patent US7268125B2 (Azevan Pharmaceuticals, Inc., priority 2001, dated 2007):

Legend:
human V1a receptor = molecular target: T1, human V1a receptor (Homo sapiens, UniProt P37288); assay: Human vasopressin V1a receptor binding assay; settings: hV1a cell line (CHO), competition with 1 nM 3H-AVP, 45 minutes at 37° C.; read-out: V1a BINDING AFFINITY (IC50 (nM))
T1 construct: host or cells: CHO cells
Procedure: Human Vasopression V1a Receptor Binding Assay.
A cell line expressing the human V1a receptor in CHO cells (henceforth referred to as the hV1a cell line) was obtained from Dr. Michael Brownstein, NIMH, Bethesda, Md., USA. The hV1a cDNA sequence is described by Thibonnier et al., Journal of Biological Chemistry, 269, 3304-3310 (1994), and the expression method was the same as described by Morel et al. (1992). The hV1a cell line was grown in alpha-MEM with 10% fetal bovine serum and 250 ug/ml G418 (Gibco, Grand Island, N.Y., USA). For competitive binding assay, hV1a cells were plated into 6-well culture plate at 1:10 dilution from a confluency flask, and maintained in culture for at least two days. Culture medium was then removed, cells were washed with 2 ml binding buffer (25 mM Hepes, 0.25% BSA, 1×DMEM, PH=7.0). To each well, 990 μl binding buffer containing 1 nM 3H-AVP was added, and followed by 10 μl series diluted Example compounds dissolved in DMSO. […] 100 nM cold AVP (Sigma) was used to assess non-specific binding. Cells were incubated for 45 minutes at 37° C., assay mixture was removed and each well was washed three times with PBS (pH=7.4). 1 ml 2% SDS was added per well and plates were let sit for 30 minutes. The whole content in a well was transferred to a scintillation vial. Each well was rinsed with 0.5 ml PBS which was then added to the corresponding vial. Scintillation fluid (Ecoscint, National Diagnostics, Atlanta, Ga.) was then added at 3 ml per vial. Samples were counted in a liquid scintillation counter (Beckman LS3801). IC50 values were calculated by Prism Curve fitting software.
All of the alkanedioic esters and amides exemplified in the foregoing examples were tested in this assay described of Example 201.

vasopressin V1a receptor = molecular target: T2, vasopressin V1a receptor (Homo sapiens, UniProt P37288); assay: Inhibition of phosphatidylinositol turnover; format: cell-based; settings: hV1a cells, [3H]inositol phosphates, versus 10 nM AVP
T2 construct: host or cells: CHO cells
T2 sequence (P37288 whole entry): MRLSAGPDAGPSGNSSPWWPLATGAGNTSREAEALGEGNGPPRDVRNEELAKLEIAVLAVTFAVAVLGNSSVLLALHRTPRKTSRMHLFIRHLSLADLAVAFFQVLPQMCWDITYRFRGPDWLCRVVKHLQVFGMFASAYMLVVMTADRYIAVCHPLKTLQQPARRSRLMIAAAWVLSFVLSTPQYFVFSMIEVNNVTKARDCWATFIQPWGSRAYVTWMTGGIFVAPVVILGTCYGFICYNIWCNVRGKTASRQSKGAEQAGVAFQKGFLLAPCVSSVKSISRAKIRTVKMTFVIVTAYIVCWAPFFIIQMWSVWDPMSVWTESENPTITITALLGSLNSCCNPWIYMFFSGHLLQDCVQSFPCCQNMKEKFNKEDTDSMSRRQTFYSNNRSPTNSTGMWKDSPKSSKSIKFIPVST
Text: Inhibition of Phosphatidylinositol Turnover.
The physiological effects of vasopressin are mediated through specific G-protein coupled receptors. The vasopressin V1a receptor is coupled to the Gq/G11 family of G proteins and mediates phosphatidylinositol turnover. The agonist or antagonist character of the compounds of the invention may be determined by their ability to inhibit vasopressin-mediated turnover of phosphatidylinositol by the procedure described in the following paragraphs.
Three days prior to the assay, near-confluent cultures of hV1a cells were dissociated and seeded in 6-well tissue culture plates, about 100 wells being seeded from each 75 cm^2 flask (equivalent to 12:1 split ratio). Each well contained 1 mL of growth medium with 2 μCi of [^3H]myo-inositol (American Radiolabeled Chemicals, St. Louis, Mo., USA).
All assays were in triplicate except for basal and 10 nM AVP (both n=6). AVP ((arginine vasopressin), Peninsula Labs, Belmont, Calif., USA (#8103)) was dissolved in 0.1N acetic acid. Test agents were dissolved in DMSO and diluted in DMSO to 200 times the final test concentration. […] The order of incubations was randomized. Incubations were initiated by removing the prelabeling medium, washing the monolayer once with 1 mL of 0.9% NaCl, and transferring the contents of the assay tubes to corresponding wells. The plates were incubated for 1 hour at 37° C. Incubations were terminated by removing the incubation medium and adding 500 μL of ice cold 0.5% (w/v) trichloroacetic acid and allowing the wells to stand for 15 min.
BioRad Poly-Prep Econo-Columns were packed with 0.3 mL of AG 1 X-8 100-200 formate form resin. Resin was mixed 1:1 with water and 0.6 mL added to each column. Columns were then washed with 10 mL water. Scintillation vials (20 mL) were placed under each column. For each well, the contents were transferred to a minicolumn, after which the well was washed with 0.5 mL distilled water, which was also added to the minicolumn. The columns were then washed twice with 5 mL of 5 mM myo-inositol to elute free inositol. Aliquots (1 mL) were transferred to 20 mL scintillation vials and 10 mL of Beckman Ready Protein Plus added. After the myo-inositol wash was complete, empty scintillation vials were placed under the columns, and [^3H]inositol phosphates were eluted with three additions of 1 mL 0.5 M ammonium formate containing 0.1 N formic acid. Elution conditions were optimized to recover inositol mono-, bis-, and trisphosphates, without eluting the more metabolically inert tetrakis-, pentakis-, and hexakis-phosphates. […] Inositol lipids were measured by adding 1 mL of 2% sodium dodecyl sulfate (SDS) to each well, allowing the wells to stand for at least 30 min., and transferring the solution to 20 mL scintillation vials, to which 10 mL Beckman Ready Protein Plus scintillation fluid was then added. Samples were counted in a Beckman LS 3801 liquid scintillation counter for 10 min. Total inositol incorporation for each well was calculated as the sum of free inositol, inositol phosphates, and inositol lipids.
Concentration-response curves for AVP and concentration-inhibition curves for test agents versus 10 nM AVP were analyzed by nonlinear least-squares curve-fitting to a 4-parameter logistic function. […] The curve-fitting was weighted under the assumption that the standard deviation was proportional to dpm of radioactivity. […] Inositol phosphates were expressed as dpm per 10^6 dpm of total inositol incorporation. […]

T1 sequence (P37288 whole entry): as above

For `O=C(NCc1cccc(C(F)(F)F)c1)[C@H](CCC(=O)N1CCN(CCc2ccccc2)CC1)N1C(=O)[C@@H](N2C(=O)OC[C@@H]2c2ccccc2)[C@H]1C=Cc1ccccc1` (single isomer, unassigned) [Example 35], the IC50 (human V1a receptor) was 1.9 nM and the “agonist or antagonist character by inhibition of vasopressin-mediated turnover of phosphatidylinositol” value (vasopressin V1a receptor) was “vasopressin V1a antagonists”.

With `O=C(NCc1cccc(C(F)(F)F)c1)C(CCC(=O)N1CCC(N2CCCCC2)CC1)N1C(=O)C(N2C(=O)OCC2c2ccccc2)C1C=Cc1ccccc1` (single isomer, unassigned) [Example 88] the “agonist or antagonist character by inhibition of vasopressin-mediated turnover of phosphatidylinositol” value (vasopressin V1a receptor) was “vasopressin V1a antagonists”.

With `O=C(NCc1cccc(C(F)(F)F)c1)C(CCC(=O)N1CCN(C2CCCCC2)CC1)N1C(=O)C(N2C(=O)OCC2c2ccccc2)C1C=Cc1ccccc1` (single isomer, unassigned) [Example 110] the IC50 (human V1a receptor) was 0.49 nM and the “agonist or antagonist character by inhibition of vasopressin-mediated turnover of phosphatidylinositol” value (vasopressin V1a receptor) was “vasopressin V1a antagonists”.

In the case of `O=C(NCc1cccc(C(F)(F)F)c1)[C@H](CC(=O)N1CCC(N2CCCCC2)CC1)N1C(=O)[C@@H](N2C(=O)OC[C@@H]2c2ccccc2)[C@H]1/C=C/c1ccccc1` [Example 44], the IC50 (human V1a receptor) is reported as 3.1 nM and the “agonist or antagonist character by inhibition of vasopressin-mediated turnover of phosphatidylinositol” value (vasopressin V1a receptor) is reported as “vasopressin V1a antagonists”.

`O=C(NCc1cccc(C(F)(F)F)c1)[C@@H](CC(=O)N1CCC(N2CCCCC2)CC1)N1C(=O)[C@@H](N2C(=O)OC[C@@H]2c2ccccc2)[C@H]1/C=C/c1ccccc1` [Example 133] was tested, and the IC50 (human V1a receptor) was 2.43 nM and the “agonist or antagonist character by inhibition of vasopressin-mediated turnover of phosphatidylinositol” value (vasopressin V1a receptor) was “vasopressin V1a antagonists”.

In the case of `O=C(NCc1cccc(C(F)(F)F)c1)[C@@H](CCC(=O)N1CCN(C2CCCCC2)CC1)N1C(=O)[C@@H](N2C(=O)OC[C@@H]2c2ccccc2)[C@H]1/C=C/c1ccccc1` [Example 139], the IC50 (human V1a receptor) is reported as 9.5 nM.
